The values that follow come from patent publication US11135252B2, “Probiotic therapies for developmental disorders and other neurological disorders” (Baylor College of Medicine, priority 2016, dated 2021).

Assay [1] concerns MHFD offspring. As to the kind of experiment: Reciprocal social interaction test in MHFD offspring. In kind it is in vivo, mice. The source says: Animal care and experimental procedures were approved by Baylor College of Medicine's Institutional Animal Care and Use Committee in accordance with all guidelines set forth by the U.S. National Institutes of Health. Reciprocal Social Interaction. Mice were placed in a 25×25×25 cm Plexiglass arena, to which they had not been previously habituated, with either a familiar (cage-mate) or stranger age- and sex-matched conspecific. In all experiments, paired mice were matched for maternal diet, colonization source, and/or treatment. We recorded the time a pair of mice engaged in social interaction (close following, touching, nose-to-nose sniffing, nose-to-anus sniffing, and/or crawling over/under each other). The human observer was blind to maternal diet and/or treatment group. Social behavior was analyzed with AnyMaze automated software. Lactobacillus reuteri MM4-1A (ATCC-PTA-6475) and Lactobacillus johnsonii (ATCC 33200) were cultured anaerobically in MRS broth in a 90% N2, 5% CO2, 5% H2 environment. L. reuteri was heat-killed by keeping the bacteria at 80° C. for 20 minutes (Wang et al., 2010). Bacterial viability was assessed by plating and the efficacy of the heat-kill procedure was confirmed by the absence of colony growth following plating. Cultures were centrifuged, washed, and resuspended in anaerobic solution (PBS) and frozen at −80° C. until use. PBS, live or heat-killed L. reuteri were added to the drinking water, which was changed daily to minimize dosage variability. Whereas the experimental group received live bacteria, one control group received identically prepared cultures of heat-killed bacteria. A second group of control mice received water treated with PBS alone. Live and heat-killed L. reuteri were supplied at a dosage of 1×10^8 organisms/mouse/day continuously in drinking water. Mice consumed the treated water ad libitum over the treatment period. The treated drinking water for each group was replaced daily two hours prior to the onset of the dark cycle to minimize variation in microbial exposure. Behavioral assays were initiated after 4-weeks of L. reuteri or control treatment. The protocol of the L. johnsonii preparation and administration matched the L. reuteri protocol. Fecal samples for sequencing and tissue used in the immunofluorescence studies were collected at the end of the treatment. Oxytocin was obtained from Tocris Bioscience (product 1910) and solubilized in 10% dimethyl sulfoxide (DMSO) in PBS. 10% DMSO in PBS was used as the vehicle control. Mice received oxytocin intranasally (at approximately 200 μg/kg) thirty minutes prior to behavior. 1.25 μl of oxytocin or vehicle solution was injected into each nostril from P10 pipette. Oxytocin dose was selected according to dosages reported to rescue social behavior in genetic models phenotypically expressing ASD-like behaviors (Penagarikano et al., 2015).

The test system of assay [2] is Cntnap2-deficient mice. As to conditions: mice lacking Cntnap2; oxytocin (Penagarikano et al., 2015; 2011); cited from earlier work.
Assay [3] relates to Cntnap2-deficient mice. As to the kind of experiment: Social behavior (sociability, social novelty) in Cntnap2-deficient mice. The class given is in vivo. The method, then:
Crawley's three-chamber test for sociability and preference for social novelty was performed as described (Silverman et al., 2010). In brief, the mouse first experienced a 10-minute period of habituation during which it was allowed to freely explore a 60×40×23 cm Plexiglass arena divided into three equally sized, interconnected chambers (Left, Center, Right). Sociability was measured during a second ten-minute period in which the subject could interact either with an empty wire cup (Empty) or a wire cup containing an age and sex-matched stranger conspecific (Mouse 1). Time spent interacting (sniffing, crawling upon) with either the empty cup or the stranger mouse contained in the other cup as well as time spent in each chamber was recorded using the AnyMaze software, by independent observers. Empty cup placement in the Left or Right chamber during the Sociability period was counterbalanced between trials. Finally, preference for social novelty was assayed by introducing a second stranger mouse (Mouse 2) into the previously the empty wire cup. Time spent in each chamber as well as time spent interacting with either Mouse 1 or Mouse 2 was recorded using the automated AnyMaze software by independent observers.
To examine whether treatment with L. reuteri could restore ASD-like behaviors in genetic models of ASD, we studied mice lacking contactin associated protein-like 2 (CNTNAP2). Mutations in CNTNAP2 have been associated with syndromic forms of ASD (Nascimento, et al., 2016; Yoo, et al., 2017; Zare, et al., 2017; el-Sobky, et al., 2004; Alarcon, et al., 2008; Sampath, et al., 2013; Chiocchetti, et al., 2015), thereby serving as a genetic model of autism in mice. Second, mice lacking Cntnap2 show ASD-like behaviors (Penagarikano, et al.).

The test system of assay [4] is MRD offspring. As to the kind of experiment: Three-chamber social test in MRD offspring. As to conditions: in drinking water. The class given is in vivo, mice. The method, then: Crawley's three-chamber test for sociability and preference for social novelty was performed as described (Silverman et al., 2010). In brief, the mouse first experienced a 10-minute period of habituation during which it was allowed to freely explore a 60×40×23 cm Plexiglass arena divided into three equally sized, interconnected chambers (Left, Center, Right). Sociability was measured during a second ten-minute period in which the subject could interact either with an empty wire cup (Empty) or a wire cup containing an age and sex-matched stranger conspecific (Mouse 1). Time spent interacting (sniffing, crawling upon) with either the empty cup or the stranger mouse contained in the other cup as well as time spent in each chamber was recorded using the AnyMaze software, by independent observers. Empty cup placement in the Left or Right chamber during the Sociability period was counterbalanced between trials. Finally, preference for social novelty was assayed by introducing a second stranger mouse (Mouse 2) into the previously the empty wire cup. Time spent in each chamber as well as time spent interacting with either Mouse 1 or Mouse 2 was recorded using the automated AnyMaze software by independent observers. Lactobacillus reuteri MM4-1A (ATCC-PTA-6475) and Lactobacillus johnsonii (ATCC 33200) were cultured anaerobically in MRS broth in a 90% N2, 5% CO2, 5% H2 environment. L. reuteri was heat-killed by keeping the bacteria at 80° C. for 20 minutes (Wang et al., 2010). Bacterial viability was assessed by plating and the efficacy of the heat-kill procedure was confirmed by the absence of colony growth following plating. Cultures were centrifuged, washed, and resuspended in anaerobic solution (PBS) and frozen at −80° C. until use. PBS, live or heat-killed L. reuteri were added to the drinking water, which was changed daily to minimize dosage variability. Whereas the experimental group received live bacteria, one control group received identically prepared cultures of heat-killed bacteria. A second group of control mice received water treated with PBS alone. […]

The mark [5] stands for this setting: mice lacking Cntnap2, L. reuteri in drinking water.

In the case of `CC[C@H](C)[C@@H]1NC(=O)[C@H](Cc2ccc(O)cc2)NC(=O)[C@@H](N)CSSC[C@@H](C(=O)N2CCC[C@H]2C(=O)N[C@@H](CC(C)C)C(=O)NCC(N)=O)NC(=O)[C@H](CC(N)=O)NC(=O)[C@H](CCC(N)=O)NC1=O` [oxytocin], in assay [1] (intranasal oxytocin), the “contact duration in reciprocal social interaction test” value was “improved MHFD offspring contact duration” and the “interaction frequency in reciprocal social interaction test” value is “improved”. For the same compound, the reciprocal social interaction entry in assay [1] (intranasal oxytocin approximately 200 μg/kg, 30 min prior) was “improved reciprocal social interaction”. Moreover, in assay [1] (intranasal oxytocin approximately 200 μg/kg, 30 min prior, listed as Oxytocin), the reciprocal social interaction entry was “restored reciprocal social interaction”. Further, the social behavioral abnormalities entry in assay [2] is recorded as “rescues the social behavioral abnormalities”.

For “Lactobacillus reuteri MM4-1A (ATCC-PTA-6475) [L. reuteri]”, in assay [1] (bacteria in drinking water), the reciprocal social interaction entry is listed as “rescued”. In assay [1] (bacteria in drinking water, listed as live L. reuteri), the reciprocal social interaction result is “restored reciprocal social interaction”. Also, in assay [3] (Cntnap2-deficient mice, L. reuteri treatment), the social behavior abnormalities entry is “reverses the social behavior abnormalities”. In assay [3] (setting [5]), the sociability entry is “reverses the deficient sociability” and the social novelty result was “reverses”. For the same compound, in assay [4], the “sociability (chamber containing a mouse, FIG. 16A)” value is on record as “preferred the chamber containing a mouse”; the social behavior entry is given as “did not change the social behavior”; the “social novelty (chamber containing Mouse 2, FIG. 16B)” value was “preferred”.
